Results published in ChEMBL document CHEMBL3611970, “Synthesis and evaluation of isatin-β-thiosemicarbazones as novel agents against antibiotic-resistant Gram-positive bacterial species” (2015).
Converted amounts (≈) assume the structure as drawn.

Columns and labels:
Format in all cases: functional
Staphylococcus aureus [1] = test: Antimicrobial activity against methicillin-resistant Staphylococcus aureus 8-24 clinical isolate after 16 hrs by broth microdilution method; conditions: 8-24, 16 h
Klebsiella pneumoniae = test: Antimicrobial activity against Klebsiella pneumoniae KP-249 clinical isolate after 16 hrs by broth microdilution method; conditions: KP-249, 16 h
Staphylococcus aureus [2] = test: Antimicrobial activity against methicillin-resistant Staphylococcus aureus 6-42 clinical isolate after 16 hrs by broth microdilution method; conditions: 6-42, 16 h
Staphylococcus aureus [3] = test: Antimicrobial activity against Staphylococcus aureus ATCC 6538 after 16 hrs by broth microdilution method; conditions: ATCC 6538, 16 h
Staphylococcus aureus [4] = test: Antimicrobial activity against methicillin-resistant Staphylococcus aureus 309-6 clinical isolate after 16 hrs by broth microdilution method; conditions: 309-6, 16 h
Staphylococcus aureus [5] = test: Antimicrobial activity against methicillin-resistant Staphylococcus aureus Chaoyang clinical isolate after 16 hrs by broth microdilution method
Staphylococcus aureus [6] = test: Antimicrobial activity against methicillin-resistant Staphylococcus aureus 309-1 clinical isolate after 16 hrs by broth microdilution method; conditions: 309-1, 16 h
Staphylococcus aureus [7] = test: Antimicrobial activity against methicillin-resistant Staphylococcus aureus 309-7 clinical isolate after 16 hrs by broth microdilution method; conditions: 309-7, 16 h
Staphylococcus aureus [8] = test: Antimicrobial activity against methicillin-resistant Staphylococcus aureus 309-3 clinical isolate after 16 hrs by broth microdilution method; conditions: 309-3, 16 h
Bacillus spizizenii = test: Antimicrobial activity against Bacillus subtilis ATCC 6633 after 16 hrs by broth microdilution method; conditions: ATCC 6633, 16 h
Staphylococcus aureus [9] = test: Antimicrobial activity against methicillin-resistant Staphylococcus aureus 6281 clinical isolate after 16 hrs by broth microdilution method; conditions: Staphylococcus aureus, 6281, 16 h
Staphylococcus aureus [10] = test: Antimicrobial activity against methicillin-resistant Staphylococcus aureus 309-4 clinical isolate after 16 hrs by broth microdilution method; conditions: 309-4, 16 h
Pseudomonas aeruginosa = test: Antimicrobial activity against Pseudomonas aeruginosa PAO1 after 16 hrs by broth microdilution method; conditions: PAO1, 16 h
Staphylococcus aureus [11] = test: Antimicrobial activity against methicillin-resistant Staphylococcus aureus 8-21 clinical isolate after 16 hrs by broth microdilution method; conditions: 8-21, 16 h
Enterococcus faecalis [12] = test: Antimicrobial activity against Enterococcus faecalis VRE-309 after 16 hrs by broth microdilution method; conditions: VRE-309, 16 h
Staphylococcus aureus [13] = test: Antimicrobial activity against methicillin-resistant Staphylococcus aureus 309-8 clinical isolate after 16 hrs by broth microdilution method; conditions: 309-8, 16 h
Enterococcus faecalis [14] = test: Antimicrobial activity against vancomycin-susceptible Enterococcus faecalis after 16 hrs by broth microdilution method

COc1cccc(NC(=S)N/N=C2\C(=O)Nc3c(F)cccc32)c1
MIC (Staphylococcus aureus [1]): 3.12 µg/mL (≈ 9.06 µM) | MIC (Klebsiella pneumoniae): > 100 µg/mL | MIC (Staphylococcus aureus [2]): 1.56 µg/mL (≈ 4.53 µM) | MIC (Staphylococcus aureus [3]): 3.12 µg/mL (≈ 9.06 µM) | MIC (Staphylococcus aureus [4]): 3.12 µg/mL (≈ 9.06 µM) | MIC (Staphylococcus aureus [5]): 1.56 µg/mL (≈ 4.53 µM) | MIC (Staphylococcus aureus [6]): 1.56 µg/mL (≈ 4.53 µM) | MIC (Staphylococcus aureus [7]): 1.56 µg/mL (≈ 4.53 µM) | MIC (Staphylococcus aureus [8]): 1.56 µg/mL (≈ 4.53 µM) | MIC (Bacillus spizizenii): 1.56 µg/mL (≈ 4.53 µM) | MIC (Staphylococcus aureus [9]): 3.12 µg/mL (≈ 9.06 µM) | MIC (Staphylococcus aureus [10]): 1.56 µg/mL (≈ 4.53 µM) | MIC (Pseudomonas aeruginosa): > 100 µg/mL | MIC (Staphylococcus aureus [11]): 1.56 µg/mL (≈ 4.53 µM) | MIC (Enterococcus faecalis [12]): > 100 µg/mL | MIC (Staphylococcus aureus [13]): 1.56 µg/mL (≈ 4.53 µM) | MIC (Enterococcus faecalis [14]): > 100 µg/mL

Cc1cccc(NC(=S)N/N=C2\C(=O)Nc3c(F)cccc32)c1
MIC (Staphylococcus aureus [1]): 1.56 µg/mL (≈ 4.75 µM) | MIC (Klebsiella pneumoniae): > 100 µg/mL | MIC (Staphylococcus aureus [2]): 0.78 µg/mL (≈ 2.38 µM) | MIC (Staphylococcus aureus [3]): 1.56 µg/mL (≈ 4.75 µM) | MIC (Staphylococcus aureus [4]): 1.56 µg/mL (≈ 4.75 µM) | MIC (Staphylococcus aureus [5]): 0.39 µg/mL (≈ 1.19 µM) | MIC (Staphylococcus aureus [6]): 0.78 µg/mL (≈ 2.38 µM) | MIC (Staphylococcus aureus [7]): 0.78 µg/mL (≈ 2.38 µM) | MIC (Staphylococcus aureus [8]): 0.78 µg/mL (≈ 2.38 µM) | MIC (Bacillus spizizenii): ≤ 0.78 µg/mL | MIC (Staphylococcus aureus [9]): 1.56 µg/mL (≈ 4.75 µM) | MIC (Staphylococcus aureus [10]): 0.78 µg/mL (≈ 2.38 µM) | MIC (Pseudomonas aeruginosa): > 100 µg/mL | MIC (Staphylococcus aureus [11]): 0.78 µg/mL (≈ 2.38 µM) | MIC (Enterococcus faecalis [12]): 3.12 µg/mL (≈ 9.5 µM) | MIC (Staphylococcus aureus [13]): 0.78 µg/mL (≈ 2.38 µM) | MIC (Enterococcus faecalis [14]): 3.12 µg/mL (≈ 9.5 µM)

Cc1ccc(NC(=S)N/N=C2\C(=O)Nc3c(I)cccc32)cc1
MIC (Staphylococcus aureus [1]): 3.12 µg/mL (≈ 7.15 µM) | MIC (Klebsiella pneumoniae): > 100 µg/mL | MIC (Staphylococcus aureus [2]): 0.78 µg/mL (≈ 1.79 µM) | MIC (Staphylococcus aureus [3]): 6.25 µg/mL (≈ 14.3 µM) | MIC (Staphylococcus aureus [4]): 3.12 µg/mL (≈ 7.15 µM) | MIC (Staphylococcus aureus [5]): 0.78 µg/mL (≈ 1.79 µM) | MIC (Staphylococcus aureus [6]): 3.12 µg/mL (≈ 7.15 µM) | MIC (Staphylococcus aureus [7]): 0.78 µg/mL (≈ 1.79 µM) | MIC (Staphylococcus aureus [8]): 3.12 µg/mL (≈ 7.15 µM) | MIC (Bacillus spizizenii): 1.56 µg/mL (≈ 3.58 µM) | MIC (Staphylococcus aureus [9]): 6.25 µg/mL (≈ 14.3 µM) | MIC (Staphylococcus aureus [10]): 1.56 µg/mL (≈ 3.58 µM) | MIC (Pseudomonas aeruginosa): > 100 µg/mL | MIC (Staphylococcus aureus [11]): 1.56 µg/mL (≈ 3.58 µM) | MIC (Enterococcus faecalis [12]): 3.12 µg/mL (≈ 7.15 µM) | MIC (Staphylococcus aureus [13]): 1.56 µg/mL (≈ 3.58 µM) | MIC (Enterococcus faecalis [14]): 12.5 µg/mL (≈ 28.7 µM)

COc1cccc(NC(=S)N/N=C2\C(=O)Nc3c(I)cccc32)c1
MIC (Staphylococcus aureus [1]): 6.25 µg/mL (≈ 13.8 µM) | MIC (Klebsiella pneumoniae): > 100 µg/mL | MIC (Staphylococcus aureus [2]): 3.12 µg/mL (≈ 6.9 µM) | MIC (Staphylococcus aureus [3]): > 100 µg/mL | MIC (Staphylococcus aureus [4]): 25 µg/mL (≈ 55.3 µM) | MIC (Staphylococcus aureus [5]): 1.56 µg/mL (≈ 3.45 µM) | MIC (Staphylococcus aureus [6]): 6.25 µg/mL (≈ 13.8 µM) | MIC (Staphylococcus aureus [7]): 3.12 µg/mL (≈ 6.9 µM) | MIC (Staphylococcus aureus [8]): 12.5 µg/mL (≈ 27.6 µM) | MIC (Bacillus spizizenii): 1.56 µg/mL (≈ 3.45 µM) | MIC (Staphylococcus aureus [9]): 25 µg/mL (≈ 55.3 µM) | MIC (Staphylococcus aureus [10]): 6.25 µg/mL (≈ 13.8 µM) | MIC (Pseudomonas aeruginosa): > 100 µg/mL | MIC (Staphylococcus aureus [11]): 6.25 µg/mL (≈ 13.8 µM) | MIC (Enterococcus faecalis [12]): 25 µg/mL (≈ 55.3 µM) | MIC (Staphylococcus aureus [13]): 25 µg/mL (≈ 55.3 µM) | MIC (Enterococcus faecalis [14]): > 100 µg/mL

COc1ccccc1NC(=S)N/N=C1\C(=O)Nc2c(I)cccc21
MIC (Staphylococcus aureus [1]): 12.5 µg/mL (≈ 27.6 µM) | MIC (Klebsiella pneumoniae): > 100 µg/mL | MIC (Staphylococcus aureus [2]): 6.25 µg/mL (≈ 13.8 µM) | MIC (Staphylococcus aureus [3]): > 100 µg/mL | MIC (Staphylococcus aureus [4]): 25 µg/mL (≈ 55.3 µM) | MIC (Staphylococcus aureus [5]): 6.25 µg/mL (≈ 13.8 µM) | MIC (Staphylococcus aureus [6]): 12.5 µg/mL (≈ 27.6 µM) | MIC (Staphylococcus aureus [7]): 6.25 µg/mL (≈ 13.8 µM) | MIC (Staphylococcus aureus [8]): 25 µg/mL (≈ 55.3 µM) | MIC (Bacillus spizizenii): 1.56 µg/mL (≈ 3.45 µM) | MIC (Staphylococcus aureus [9]): 25 µg/mL (≈ 55.3 µM) | MIC (Staphylococcus aureus [10]): 12.5 µg/mL (≈ 27.6 µM) | MIC (Pseudomonas aeruginosa): > 100 µg/mL | MIC (Staphylococcus aureus [11]): 12.5 µg/mL (≈ 27.6 µM) | MIC (Enterococcus faecalis [12]): > 100 µg/mL | MIC (Staphylococcus aureus [13]): 12.5 µg/mL (≈ 27.6 µM) | MIC (Enterococcus faecalis [14]): > 100 µg/mL

O=C1Nc2c(Br)cccc2/C1=N/NC(=S)Nc1ccc(Cl)cc1
MIC (Staphylococcus aureus [1]): 1.56 µg/mL (≈ 3.81 µM) | MIC (Klebsiella pneumoniae): > 100 µg/mL | MIC (Staphylococcus aureus [2]): 0.78 µg/mL (≈ 1.9 µM) | MIC (Staphylococcus aureus [3]): 1.56 µg/mL (≈ 3.81 µM) | MIC (Staphylococcus aureus [4]): 1.56 µg/mL (≈ 3.81 µM) | MIC (Staphylococcus aureus [5]): 0.39 µg/mL (≈ 0.952 µM) | MIC (Staphylococcus aureus [6]): 0.78 µg/mL (≈ 1.9 µM) | MIC (Staphylococcus aureus [7]): 0.39 µg/mL (≈ 0.952 µM) | MIC (Staphylococcus aureus [8]): 0.78 µg/mL (≈ 1.9 µM) | MIC (Bacillus spizizenii): ≤ 0.78 µg/mL | MIC (Staphylococcus aureus [9]): 1.56 µg/mL (≈ 3.81 µM) | MIC (Staphylococcus aureus [10]): 0.78 µg/mL (≈ 1.9 µM) | MIC (Pseudomonas aeruginosa): > 100 µg/mL | MIC (Staphylococcus aureus [11]): 0.78 µg/mL (≈ 1.9 µM) | MIC (Enterococcus faecalis [12]): 1.56 µg/mL (≈ 3.81 µM) | MIC (Staphylococcus aureus [13]): 0.78 µg/mL (≈ 1.9 µM) | MIC (Enterococcus faecalis [14]): 3.12 µg/mL (≈ 7.62 µM)
